{"source": "patent US6288051A", "about": "“7 α-(5-methylaminopentyl)-estratrienes, process for their production, pharmaceutical preparations that contain these 7 α(5-methylaminopentyl)-estratrienes as well as their use for the production of pharmaceutical agents” (Schering Aktiengesellschaft, priority 1996, dated 2001)", "key": {"MVLN cells": {"tested_on": "MVLN cells", "assay": "Transactivation assay, MVLN cells transfixed with reporter gene Vit-TK-LUC", "assay_type": "cell-based", "conditions": "Homo sapiens, MVLN, read-out: IC50 [nM] MVLN cells", "protocol": "The antiestrogenic action of the compounds according to the invention was determined in transactivation assays [Demirpence, E.; Duchesne M.-J.; Badia, E.; Gagne, D. and Pons, M.: MVLN Cells: A Bioluminescent MCF-7-Derived Cell Line to Study the Modulation of Estrogenic Activity; J. Steroid. Molec. Biol. Vol. 46, No. 3, 355-364 (1993) as well as Berry, M.; Metzeger D.; Chambon, P.: Role of the Two Activating Domains of the Estrogen Receptor in the Cell-type and Promoter-context Dependent Agonistic Activity of the Anti-estrogen 4-Hydroxytamoxifen; The EMBO Journal Vol. 9, 2811-2818 (1990)].\nThe IC50 values for the new compounds lie in the nanomolar range. […] The HeLa cells are transfixed with human estrogen receptor-expression vector (HEGO) and Vit-TK-CAT reporter genes, and the MVLN cells are transfixed with reporter gene Vit-TK-LUC: […]"}, "[1]": {"tested_on": "DMBA-induced breast cancer", "assay": "DMBA-induced breast cancer in rats", "assay_type": "in vivo, rat", "description": "2.2 DMBA*-induced breast cancer in rats\n2.2. Influencing Tumor Growth in the […] Model in Rats (DMBA Tumor Model)\n*9,10-Dimethyl-1,2-benanthracene\nThe growth of the DMBA-induced breast neoplasm of rats is largely dependent on estrogens and prolactin. Active antiestrogens, antigestagens, and aromatase inhibitors result in the inhibition of tumor growth, and substances that have antigonadotropic and androgenic properties also exert a tumor-inhibiting action.\n45-47-day-old female rats (Sprague-Dawley, breeder ZiH or Mollegard), 8-10 animals per group.\nThe animals receive 10 mg of DMBA orally on a one-time basis. Then, the animals are examined weekly by palpation for tumor development. Six to 10 weeks after DNBA treatment, approximately 1 to 10 tumors develop per animal. The tumor size is determined once a week with the aid of a sliding gauge. If at least one tumor has reached a specific size (150 mm^2 of tumor surface area), an ovariectomy is performed on the animals, or the treatment of the animals with the test substance begins. The treatment is carried out in most cases daily for a period of about 28 days (for details on execution, see Test Plan). The tumor size is subsequently determined once a week.\nThe total tumor size per animal is determined before the beginning of treatment (initial values). For each group, the average values of the percentage changes of the tumor size relative to the initial value are then calculated. In addition, the percentage of animals per group is determined, whose tumors in each case: (1) have totally disappeared (total regression); partially disappeared (partial regression); (3) are unchanged (no change); or (4) are further enlarged (enlargement).\nThe values that are found are tested for significance in the Dunnett Test and are plotted graphically."}, "[2]": {"tested_on": "uterus growth (estradiol benzoate)", "assay": "Uterus growth test in infantile rats (antiestrogenic action)", "assay_type": "in vivo, rat", "conditions": "differences highly significant (FIG. 1 and 2)", "description": "1. Uterus growth test in infantile rats, s.c. and p.o. (test for antiestrogenic action)\n1. Uterus Growth Test in Infantile Rats (Antiestrogenic Action)\nIn rodents, the uterus reacts to the administration of estrogens with an increase in weight (both proliferation and water retention). This growth is to be inhibited in a dose-dependent-manner by simultaneous administration of compounds with an antiestrogenic action.\nInfantile female rats at a weight of 35-45 g at the beginning of the test, 5-6 animals per dose.\nFormulation and Administration of the Substances: […]\nBoth for s.c. and for p.o. administration, the substances are dissolved in 1 part of ethanol (E) and made up with 9 parts of peanut oil (EO).\nYoung rats that have just been weaned from their mothers are delivered one day before the beginning of treatment for acclimatization and are immediately supplied with food--still in the animal cage. […] The wet weights (without contents) are determined from the prepared uteri. […]\nFor each group, the average values with standard deviation (X+SD), as well as the significance of the differences compared to the control group (EB) in the Dunnett Test (p<0.05), are determined from the relative organ weights (mg/100 g of body weight). […] The relative effects of the test substances are determined by covariance and regression analysis."}}, "data": [{"smiles": "CN(CCCCC[C@@H]1Cc2cc(O)ccc2[C@H]2CC[C@]3(C)[C@@H](O)CC[C@H]3[C@H]12)CCCSCCCC(F)(F)C(F)(F)F", "note": "[Example 1, 7α-{5-[N-Methyl-N-3-(4,4,5,5,5-pentafluoropentylthio)-propylamino]-pentyl}-estra-1,3,5(10)-triene-3,17β-diol]", "values": [{"measurement": "IC50", "setting": "MVLN cells", "value": 1, "unit": "nM"}, {"measurement": "activity compared to tamoxifen (TAM)", "setting": "[1]; DMBA, oral (FIG. 4)", "value": "even more strongly active than tamoxifen (TAM)"}, {"measurement": "inhibition of tumor growth", "setting": "[1]; oral, 3 mg/kg/day (FIG. 4)", "value": "completely inhibits tumor growth (no growth)"}, {"measurement": "relative antiestrogenic activity vs 7α-[9-(4,4,5,5,5-pentafluoropentanesulfinyl)-nonyl]-estra-1,3,5(10)-triene-3,17β-diol", "setting": "[2]; oral administration", "value": 4.7, "unit": "times"}, {"measurement": "relative antiestrogenic activity vs 7α-[9-(4,4,5,5,5-pentafluoropentanesulfinyl)-nonyl]-estra-1,3,5(10)-triene-3,17β-diol", "setting": "[2]; subcutaneous administration", "value": 5.4, "unit": "times"}]}]}
